The source of these data is ChEMBL document CHEMBL1201862, “PubChem BioAssay data set” (2004).

Among the test systems are SK-OV-3; OVCAR-8; ACHN; SK-MEL-2; HCT-116; SF-295; SF-539; SNB-75; BT-549; HCC 2998; HT-29; MCF7; A549; K562; SK-MEL-5; UACC-62; SN12C; HOP-62; HL-60; EKVX.
What all share (assay): NCI anticancer screen, dose series, 48 h

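Assay format: 96-well plates, 48-hour exposure. GI50: concentration for 50% inhibition of growth.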 The source made the active and inactive calls. No stated cut-off is given here; in the data, active = GI50 up to about 1.1 µM and inactive = higher. Some results are limits rather than exact numbers.

In the case of `CCOC(=O)C(Cc1ccc(OC(=O)c2ccc(OC)cc2OC)cc1)NC(=O)C(F)(F)F` (stereo not given), the GI50 in the assay on SK-OV-3 is 39 µM (inactive); in the assay with OVCAR-8, 22.8 µM (inactive); in the assay with ACHN, 17.2 µM (inactive); with SK-MEL-2 it was 24.6 µM (inactive); with HCT-116, 34.1 µM (inactive); in the assay on SF-295, 31.7 µM (inactive). The GI50 is 23.2 µM (inactive) with SF-539; 16.4 µM (inactive) in the assay with SNB-75; 79.1 µM (inactive) in the assay with BT-549; 16.5 µM (inactive) in the assay on HCC 2998; 20.7 µM (inactive) in the assay with HT-29; 19.7 µM (inactive) in the assay with MCF7. The GI50 is 36.2 µM (inactive) with A549; 29.6 µM (inactive) in the assay with K562; 37.3 µM (inactive) in the assay on SK-MEL-5; 16.1 µM (inactive) in the assay on UACC-62; 40.1 µM (inactive) in the assay with SN12C; 21.3 µM (inactive) with HOP-62. Also, the figures for the GI50 in the assay with HL-60 and in the assay with EKVX were 21.9 µM (inactive) and 21.4 µM (inactive), respectively.

As for `CC1=NN(c2ccc(S(=O)(=O)O)cc2)C2(C1)SCC(=O)N2c1nc2ccccc2s1` (stereo not given), the GI50 in the assay on SK-OV-3, in the assay on OVCAR-8, in the assay with ACHN, in the assay on SK-MEL-2, in the assay on HCT-116 and in the assay with SF-295 was > 100 µM (inactive) throughout. Also, the GI50 in the assay on SF-539, in the assay with SNB-75, in the assay with BT-549, in the assay on HCC 2998, in the assay with HT-29 and in the assay with MCF7 was > 100 µM (inactive) throughout. For the same compound, the GI50 in the assay with A549, in the assay on K562, in the assay on SK-MEL-5, in the assay on UACC-62, in the assay on SN12C and in the assay with HOP-62 was > 100 µM (inactive) in each case. The results for the GI50 in the assay on HL-60 and in the assay with EKVX were 0.195 µM (active) and > 100 µM (inactive), respectively.

Turning to `CCOC(=O)C(C(=O)OCC)=C1NC2(c3ccccc3Nc3ccc(C)cc32)C(C(=O)OC)S1` (stereo not given), the GI50 was > 100 µM (inactive) in the assay with SK-OV-3; 29.4 µM (inactive) in the assay on OVCAR-8; 21.4 µM (inactive) in the assay with ACHN; 14.7 µM (inactive) with SK-MEL-2; 9.64 µM (inactive) with HCT-116; 10.8 µM (inactive) in the assay on SF-295. The GI50 was 42.2 µM (inactive) in the assay with SF-539; 14.9 µM (inactive) in the assay on SNB-75; 43.6 µM (inactive) with BT-549; 15.9 µM (inactive) in the assay on HCC 2998; 23.9 µM (inactive) with HT-29; 14.8 µM (inactive) with MCF7. The GI50 in the assay on A549 was 13.7 µM (inactive); in the assay on K562 it was 18.4 µM (inactive); in the assay on SK-MEL-5, 13.9 µM (inactive); in the assay with UACC-62 it was 20.8 µM (inactive); with SN12C, 4.11 µM (inactive); in the assay with HOP-62, 80 µM (inactive). In addition, the GI50 is 20 µM (inactive) with HL-60 and 8.36 µM (inactive) in the assay on EKVX.

On to `COc1ccc2nc3cc(Cl)ccc3c(Nc3ccccc3-c3ccccc3Nc3c4ccc(Cl)cc4nc4ccc(OC)cc34)c2c1`, for which the GI50 in the assay with SK-OV-3 is > 75.7 µM (inactive); in the assay on OVCAR-8 it was 28.5 µM (inactive); in the assay with ACHN, > 29.4 µM (inactive); with SK-MEL-2 it was 34.2 µM (inactive); in the assay with HCT-116, 11.7 µM (inactive); in the assay on SF-295 it was 33 µM (inactive). The GI50 is 24.2 µM (inactive) with SF-539; 14.7 µM (inactive) with SNB-75; 15.9 µM (inactive) with BT-549; 31.6 µM (inactive) in the assay on HCC 2998; 10.5 µM (inactive) in the assay with HT-29; 40.8 µM (inactive) in the assay with MCF7. Also, the GI50 in the assay with A549 was 45.2 µM (inactive); in the assay with K562 it was 4.63 µM (inactive); in the assay with SK-MEL-5, 18.1 µM (inactive); in the assay on UACC-62, 27.5 µM (inactive); with SN12C it was 32.2 µM (inactive); in the assay with HOP-62, 55.7 µM (inactive). For the same compound, the GI50 in the assay on HL-60 was 2.66 µM (inactive); in the assay on EKVX it was 52 µM (inactive).

As for `CC(=O)OC1CCC2(C)C(=CCC3C4CCC5(OC6CC(C)CN(C(C)=O)C6C5C)C(C)=C4C(=O)C32)C1` (stereo not given), the GI50 with SK-OV-3 is 26.5 µM (inactive); in the assay on OVCAR-8, 18.5 µM (inactive); in the assay with ACHN it was 25.5 µM (inactive); in the assay on SK-MEL-2 it was 17.8 µM (inactive); in the assay on HCT-116, 18.9 µM (inactive); with SF-295, 19.1 µM (inactive). Also, the GI50 with SF-539 was 20.4 µM (inactive); in the assay with SNB-75, 19 µM (inactive); in the assay on BT-549, 15 µM (inactive); with HCC 2998 it was 13.7 µM (inactive); with HT-29 it was 19.9 µM (inactive); with MCF7, 10.5 µM (inactive). The GI50 is 14.3 µM (inactive) with A549; 16.3 µM (inactive) in the assay with K562; 10 µM (inactive) in the assay on SK-MEL-5; 5.35 µM (inactive) with UACC-62; 21.6 µM (inactive) in the assay on SN12C; 20.4 µM (inactive) in the assay with HOP-62. Moreover, the GI50 in the assay on HL-60 is 81.3 µM (inactive); in the assay with EKVX, 7.96 µM (inactive).

For `Cc1c(/N=N/c2ccc([N+](=O)[O-])cc2)nc2scc(-c3ccccc3)n12`, the GI50 with SK-OV-3 is > 100 µM (inactive); with OVCAR-8, 71.6 µM (inactive); in the assay on ACHN, 63.4 µM (inactive); in the assay on SK-MEL-2, > 100 µM (inactive); in the assay with HCT-116, > 100 µM (inactive); in the assay on SF-295 it was 52.7 µM (inactive). Further, the GI50 was 82.6 µM (inactive) with SF-539; 44.5 µM (inactive) in the assay on SNB-75; > 78.7 µM (inactive) in the assay with BT-549; > 100 µM (inactive) in the assay on HCC 2998; > 88.5 µM (inactive) in the assay on HT-29; 49.4 µM (inactive) with MCF7. Also, the GI50 is > 100 µM (inactive) in the assay with A549; 22 µM (inactive) in the assay on K562; > 100 µM (inactive) in the assay on SK-MEL-5; > 65.6 µM (inactive) with UACC-62; > 100 µM (inactive) in the assay on SN12C; > 66.5 µM (inactive) in the assay with HOP-62. In addition, the GI50 in the assay with HL-60 is 13.7 µM (inactive); in the assay on EKVX, > 100 µM (inactive).
